Broadly, the Emax is the greatest response seen or fitted, relative to the assay's reference. Broadly, the EC50 is the concentration giving half of the maximal effect. By Ki is commonly meant the equilibrium dissociation constant of an inhibitor or competing ligand from its target. As a reminder, the melting point is the temperature of the solid-liquid transition.

Like-named read-outs stand apart in the source and are kept apart here.

Series [1] addresses T1, DOR (Mus musculus, UniProt P32300).
T1 construct: endogenous in cells; host or cells: NG108-15 neuroblastoma x glioma cells
Kind of series: [35S]GTP-γ-S binding assay, NG108-15 cells. The series is classed as biochemical. Conditions: for agonist activity DOR EC50: stimulation of [35S]GTP-γ-S binding, no stim = no stimulation. (GTPγS resists hydrolysis and so accumulates on activated G proteins.)

Series [2] deals with T2, KOR (Homo sapiens, UniProt P41145).
T2 construct: expressed in transfected cells; host or cells: CHO (hKOR-CHO)
Kind of series: [35S]GTP-γ-S binding assay, hKOR-CHO cells. The series is classed as biochemical. The conditions noted are these: for Emax: normalized to stimulation by standard agonist; for agonist activity KOR EC50: stimulation of [35S]GTP-γ-S binding, no stim = no stimulation.

Series [3] addresses T3, MOR (Homo sapiens, UniProt P35372).
T3 construct: expressed in transfected cells; host or cells: CHO (hMOR-CHO)
Kind of series: Opioid binding assay, displacement of [3H]DAMGO, hMOR-CHO cell membranes. Conditions: for selectivity ratio MOR/DOR: ratio of Ki values, CHO membranes. A general note: Loss of bound radioactivity is the signal in a displacement assay; it reports binding, not function.

Series [4] addresses T3, MOR. Kind of series: [35S]GTP-γ-S binding assay, hMOR-CHO cells. It counts as biochemical. Conditions: for Emax: normalized to stimulation by DAMGO, read-out: agonist activity MOR Emax; for agonist activity MOR EC50: stimulation of [35S]GTP-γ-S binding, no stim = no stimulation.
The target of series [5] is T2, KOR. Kind of series: biochemical. The series is classed as binding.
For series [6], the target named is T4, DOR (Homo sapiens, UniProt P41143).
T4 construct: expressed in transfected cells; host or cells: CHO (hDOR-CHO)
Kind of series: Opioid binding assay, displacement of [3H]DADLE, hDOR-CHO cell membranes. Conditions: for fold weaker in binding to DOR compared to 14-benzyloxy counterpart: 18a vs 17b, 18d vs 17f.

The mark [7] stands for this setting: ratio of Ki values, CHO membranes.

T1 sequence (P32300 whole entry): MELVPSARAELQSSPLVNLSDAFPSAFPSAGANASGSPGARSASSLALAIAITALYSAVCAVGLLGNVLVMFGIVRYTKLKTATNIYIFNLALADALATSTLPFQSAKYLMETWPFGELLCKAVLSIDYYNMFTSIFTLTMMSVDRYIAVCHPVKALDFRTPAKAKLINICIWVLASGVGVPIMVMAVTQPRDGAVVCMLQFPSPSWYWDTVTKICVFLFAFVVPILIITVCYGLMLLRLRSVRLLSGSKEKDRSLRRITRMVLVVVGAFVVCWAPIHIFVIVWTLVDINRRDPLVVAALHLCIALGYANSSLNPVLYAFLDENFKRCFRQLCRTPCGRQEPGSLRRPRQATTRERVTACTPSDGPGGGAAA
T3 sequence (P35372 whole entry): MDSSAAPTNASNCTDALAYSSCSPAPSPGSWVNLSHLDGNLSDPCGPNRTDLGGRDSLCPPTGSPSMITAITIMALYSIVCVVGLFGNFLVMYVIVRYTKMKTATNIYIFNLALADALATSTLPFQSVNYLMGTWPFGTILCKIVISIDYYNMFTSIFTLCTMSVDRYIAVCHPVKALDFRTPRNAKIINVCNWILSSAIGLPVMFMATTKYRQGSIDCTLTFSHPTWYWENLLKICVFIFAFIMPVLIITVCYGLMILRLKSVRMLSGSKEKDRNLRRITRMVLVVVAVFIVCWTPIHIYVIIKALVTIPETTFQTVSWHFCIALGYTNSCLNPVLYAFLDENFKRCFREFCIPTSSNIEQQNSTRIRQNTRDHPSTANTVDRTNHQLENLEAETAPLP
T4 sequence (P41143 whole entry): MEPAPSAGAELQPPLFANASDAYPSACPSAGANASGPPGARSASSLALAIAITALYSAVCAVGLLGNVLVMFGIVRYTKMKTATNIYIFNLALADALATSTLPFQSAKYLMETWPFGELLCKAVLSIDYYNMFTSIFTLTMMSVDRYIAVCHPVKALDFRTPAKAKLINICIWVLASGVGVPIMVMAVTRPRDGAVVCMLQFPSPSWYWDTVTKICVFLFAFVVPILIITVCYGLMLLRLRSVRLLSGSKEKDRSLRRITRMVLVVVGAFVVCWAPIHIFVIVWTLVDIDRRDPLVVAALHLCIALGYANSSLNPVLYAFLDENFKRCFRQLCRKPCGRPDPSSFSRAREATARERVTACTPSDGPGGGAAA
T2 sequence (P41145 whole entry): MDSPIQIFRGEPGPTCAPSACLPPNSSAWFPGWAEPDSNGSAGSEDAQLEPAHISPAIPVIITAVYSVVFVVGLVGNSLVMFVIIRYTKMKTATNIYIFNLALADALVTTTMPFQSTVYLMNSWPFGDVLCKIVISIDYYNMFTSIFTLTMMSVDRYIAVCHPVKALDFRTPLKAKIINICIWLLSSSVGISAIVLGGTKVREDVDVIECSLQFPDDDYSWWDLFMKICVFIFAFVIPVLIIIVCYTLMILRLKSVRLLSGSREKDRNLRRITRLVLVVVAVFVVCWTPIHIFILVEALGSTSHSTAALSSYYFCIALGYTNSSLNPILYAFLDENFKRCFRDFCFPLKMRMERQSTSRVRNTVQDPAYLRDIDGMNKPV

Consider `CN1CCC23c4c5ccc(O)c4OC2c2ncc(-c4ccc(Cl)cc4)cc2CC3(OCc2ccccc2)C1C5` (stereo not drawn) [Compound 17f, 14-Benzyloxy-5′-(4-chlorophenyl)-6,7-didehydro-4,5α-epoxy-3-hydroxy-17-methylpyrido[2′,3′:6,7]morphinan], for which the melting point was 228 to 232 °C. In addition, the “functional activity profile at DOR” value on DOR [1] (in words) is given as “weak to potent partial agonist activity at DOR”. The Emax on DOR [1] (read-out: agonist activity DOR Emax) came to 52 ± 1%. In addition, on KOR [2], the EC50 is 215 ± 54 nM and the Emax was found to be 32 ± 2%. For the same molecule, on MOR [3], the Ki amounted to 4.69 ± 0.17 nM and the “selectivity ratio MOR/DOR” value was determined as 2.6. Further, on MOR [4], the EC50 worked out at 301 nM and the Emax is 119 ± 3%. Further, the “selectivity ratio KOR/DOR” value at KOR [5] (setting [7]) is 28. For the same molecule, on KOR [5] (read-out: Ki ± SEM KOR), the Ki is 49 ± 6 nM. For the same molecule, on DOR [6], affinity was put at a Ki of 1.78 ± 0.15 nM.
For `O=C(OC12Cc3cc(-c4ccc(Cl)cc4)cnc3C3Oc4c(O)ccc5c4C31CCN(CC1CC1)C2C5)c1ccccc1` (stereo not drawn) [Compound 18a, 14-Benzoyloxy-5′-(4-chlorophenyl)-17-(cyclopropylmethyl)-6,7-didehydro-4,5α-epoxy-3-hydroxypyrido[2′,3′: 6,7]morphinan], the melting point lay in the range of 158 to 162 °C. Besides, the “agonist activity DOR EC50” value on DOR [1] was “no stim”. Besides, the “agonist activity KOR EC50” value at KOR [2] is “no stim”. Moreover, at MOR [3], affinity was put at a Ki of 192 ± 21 nM and the “selectivity ratio MOR/DOR” value stood at 2.2. Moreover, at MOR [4], the “agonist activity MOR EC50” value was “no stim”. At KOR [5], affinity was put at a Ki of 117 ± 6 nM and the “selectivity ratio KOR/DOR” value is reported as 1.3. Besides, on DOR [6], the inhibition constant (Ki) was found to be 87 ± 8 nM and the “fold weaker in binding to DOR compared to 14-benzyloxy counterpart” value amounted to 45 fold.
Turning to `O=C(Cc1ccccc1)OC12Cc3cc(-c4ccc(Cl)cc4)cnc3C3Oc4c(O)ccc5c4C31CCN(CC1CC1)C2C5` (stereo not drawn) [Compound 18b, 5′-(4-Chlorophenyl)-17-(cyclopropylmethyl)-6,7-didehydro-4,5α-epoxy-3-hydroxy-14-(phenylacetoxy)pyrido[2′,3′:6,7]morphinan], the melting point fell in the range of 118 to 120 °C. In addition, on DOR [1], the “agonist activity DOR EC50” value is reported as “no stim”. In addition, on KOR [2], the EC50 is 26 ± 9 nM and the maximum response (Emax) was determined as 34 ± 2%. On MOR [3], the inhibition constant (Ki) was determined as 1.04 ± 0.25 nM and the “selectivity ratio MOR/DOR” value is reported as 0.78. The “agonist activity MOR EC50” value on MOR [4] was “no stim”. Moreover, at KOR [5] (setting [7]), the “selectivity ratio KOR/DOR” value worked out at 2.3. For the same molecule, the Ki at KOR [5] (read-out: Ki ± SEM KOR) was 3.1 ± 0.19 nM. In addition, at DOR [6], the Ki was found to be 1.33 ± 0.1 nM.
The molecule `CN1CCC23c4c5ccc(O)c4OC2c2ncc(-c4ccc(Cl)cc4)cc2CC3(OC(=O)c2ccccc2)C1C5` (stereo not drawn) [Compound 18d, 14-Benzoyloxy-5′-(4-chlorophenyl)-6,7-didehydro-4,5α-epoxy-3-hydroxy-17-methylpyrido[2′,3′:6,7]morphinan] registered a melting point of 280 to 284 °C. For the same molecule, the “agonist activity DOR EC50” value on DOR [1] is “no stim”. Also, the “agonist activity KOR EC50” value on KOR [2] was “no stim”. At MOR [3], the Ki is 84 ± 7 nM and the “selectivity ratio MOR/DOR” value was found to be 4.9. Besides, on MOR [4], the 50% effective concentration (EC50) came to 4620 ± 1440 nM and the Emax was found to be 55 ± 8%. In addition, the “functional activity profile at MOR” value on MOR [4] (in words) is “weak MOR agonist potency and partial efficacy”. Also, the “selectivity ratio KOR/DOR” value at KOR [5] (setting [7]) came to 6.6. Also, on KOR [5] (read-out: Ki ± SEM KOR), the Ki was determined as 112 ± 4 nM. On DOR [6], the affinity, expressed as Ki, was 17 ± 1 nM and the “fold weaker in binding to DOR compared to 14-benzyloxy counterpart” value is 10 fold.
